This note sets out measurements from ChEMBL document CHEMBL1201862, “PubChem BioAssay data set” (2004).

Structures are written as SMILES.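 Step 1: Grow cells in 96-well plates. Step 2: Expose to compound for 48 hours at 5 concentrations. Step 3: Interpolate endpoints linearly; if unreached, use highest concentration. GI50: concentration for 50% inhibition of growth.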 Active and inactive are the calls of the source. Rule as the data show it: active = GI50 up to about 1.1 µM and inactive = higher.

Some test systems named below: KM12; A498; PC-3; SNB-19; NCI/ADR-RES; NCI-H226; Hs-578T; HCC 2998; NCI-H460; MDA-N; CAKI-1; MDA-MB-231; DU-145; MCF7; SNB-75; SF-268; EKVX; RXF 393; OVCAR-4; LOX IMVI.
Common to all, as to assay: NCI anticancer screen, dose series, 48 h

Turning to `Cc1ncc([N+](=O)[O-])n1CCNC(=O)Cn1c([N+](=O)[O-])cnc1C`, the GI50 with KM12, with A498, with PC-3, in the experiment with SNB-19, in the experiment on NCI/ADR-RES and with NCI-H226 was > 100 µM (inactive) throughout. Further, the GI50 with Hs-578T, in the experiment on HCC 2998, in the experiment with NCI-H460, with MDA-N, in the experiment on CAKI-1 and in the experiment with MDA-MB-231 was > 100 µM (inactive) in each case. In addition, the GI50 was 92.5 µM (inactive) with DU-145, > 100 µM (inactive) in the experiment with MCF7, 76.2 µM (inactive) with SNB-75 and > 100 µM (inactive) with SF-268.
As to `C/C=C\C(CC(=O)NCCc1c[nH]c2ccccc12)CC(=O)OC` (stereo unspecified), the GI50 in the experiment on EKVX, in the experiment on KM12, in the experiment with RXF 393, in the experiment on A498, in the experiment on PC-3 and in the experiment with SNB-19 was > 100 µM (inactive) in each case. Besides, the GI50 with NCI/ADR-RES, in the experiment with Hs-578T, in the experiment with HCC 2998, with NCI-H460, with MDA-N and in the experiment with CAKI-1 was > 100 µM (inactive) each time. Further, the GI50 in the experiment on MDA-MB-231, in the experiment with OVCAR-4, in the experiment on DU-145, in the experiment on MCF7, with SNB-75 and in the experiment with SF-268 was > 100 µM (inactive) throughout.
With `O=C1c2ccccc2CC12CCC1(CC2)OCCO1`, the GI50 in the experiment on EKVX, with KM12, in the experiment on LOX IMVI, with RXF 393, in the experiment with PC-3 and with SNB-19 was > 100 µM (inactive) in each case. Moreover, the GI50 in the experiment on NCI/ADR-RES, in the experiment with NCI-H226, in the experiment on Hs-578T, in the experiment with HCC 2998, in the experiment on NCI-H460 and with MDA-N was > 100 µM (inactive) throughout. Besides, the GI50 in the experiment with CAKI-1, with MDA-MB-231, with OVCAR-4, with DU-145, in the experiment with MCF7 and with SNB-75 was > 100 µM (inactive) each time. Further, in the experiment with SF-268, the GI50 was > 100 µM (inactive).
With `CCCC(=O)OC1CC(n2cc(F)c(=O)[nH]c2=O)OC1COP(=O)(OCC(Cl)(Cl)Cl)OCC(Cl)(Cl)Cl` (stereo unspecified), the GI50 in the experiment on EKVX was 43.8 µM (inactive); in the experiment on KM12, 19.1 µM (inactive); in the experiment on LOX IMVI it was 16.1 µM (inactive); with PC-3, 7.74 µM (inactive); in the experiment with SNB-19, 3.15 µM (inactive); in the experiment with NCI/ADR-RES, 1.17 µM (inactive). Further, the GI50 in the experiment on NCI-H226 is 65.2 µM (inactive); with Hs-578T, 13.9 µM (inactive); with HCC 2998, < 0.01 µM (active); with NCI-H460 it was 0.0351 µM (active); in the experiment on MDA-N, 7.01 µM (inactive); in the experiment with CAKI-1, 0.283 µM (active). Moreover, the GI50 is 24.2 µM (inactive) with MDA-MB-231; 16.9 µM (inactive) in the experiment on OVCAR-4; 0.938 µM (active) with DU-145; 0.0697 µM (active) in the experiment on MCF7; 8.04 µM (inactive) in the experiment on SNB-75; 0.766 µM (active) in the experiment with SF-268.
Regarding `CC(=O)Oc1ccc(/C=C/C(=O)O[C@@H](C(=O)O)[C@@H](OC(=O)/C=C/c2ccc(OC(C)=O)c(OC(C)=O)c2)C(=O)O)cc1OC(C)=O`, the GI50 in the experiment on EKVX, in the experiment with KM12, in the experiment with LOX IMVI, in the experiment with RXF 393, in the experiment on A498 and with PC-3 was > 100 µM (inactive) throughout. For the same molecule, the GI50 in the experiment with SNB-19, with NCI/ADR-RES, in the experiment on Hs-578T, with HCC 2998, with NCI-H460 and in the experiment on MDA-N was > 100 µM (inactive) throughout. Besides, the GI50 with CAKI-1 is > 100 µM (inactive); in the experiment on MDA-MB-231, > 100 µM (inactive); in the experiment on OVCAR-4 it was > 100 µM (inactive); in the experiment with DU-145 it was > 100 µM (inactive); in the experiment on MCF7, > 100 µM (inactive); in the experiment on SNB-75, 82.8 µM (inactive). In addition, the GI50 in the experiment on SF-268 was > 100 µM (inactive).
`Clc1ccc(CCN2CCN(CCCc3ccccc3)CC2)cc1Cl`: the GI50 was 17.4 µM (inactive) in the experiment with EKVX; 17.7 µM (inactive) in the experiment on KM12; 17.2 µM (inactive) in the experiment on LOX IMVI; 15.8 µM (inactive) in the experiment on A498; 17.7 µM (inactive) in the experiment on PC-3; 16.6 µM (inactive) with SNB-19. In addition, the GI50 in the experiment on NCI/ADR-RES was 14.7 µM (inactive); in the experiment with NCI-H226, 20.1 µM (inactive); with Hs-578T, 23.5 µM (inactive); with HCC 2998 it was 17 µM (inactive); in the experiment on NCI-H460, 17.7 µM (inactive); in the experiment on MDA-N, 16.9 µM (inactive). Besides, the GI50 with CAKI-1 is 17.1 µM (inactive); in the experiment with MDA-MB-231, 16.8 µM (inactive); with OVCAR-4 it was 16.3 µM (inactive); with DU-145, 16.4 µM (inactive); in the experiment with MCF7, 17.5 µM (inactive); with SF-268 it was 20.4 µM (inactive).
As for `CCN(CC)CCOc1ccccc1/C=C/c1noc2ccccc12`, the GI50 with EKVX is 15.2 µM (inactive); in the experiment on KM12, 16.4 µM (inactive); with RXF 393, 2.75 µM (inactive); in the experiment on A498, 17.2 µM (inactive); in the experiment with PC-3 it was 4.89 µM (inactive); in the experiment with SNB-19 it was 13.6 µM (inactive). For the same molecule, the GI50 with NCI/ADR-RES was 19 µM (inactive); in the experiment with NCI-H226, 16.3 µM (inactive); in the experiment with Hs-578T, 15.7 µM (inactive); in the experiment on HCC 2998 it was 5.79 µM (inactive); with NCI-H460, 11.6 µM (inactive); with MDA-N it was 11.8 µM (inactive). In addition, the GI50 in the experiment on CAKI-1 is 12.8 µM (inactive); in the experiment on MDA-MB-231, 11.4 µM (inactive); with OVCAR-4, 24.5 µM (inactive); in the experiment with DU-145 it was 15.7 µM (inactive); in the experiment on MCF7 it was 14.2 µM (inactive); in the experiment with SNB-75, 10.4 µM (inactive). The GI50 with SF-268 was 17.2 µM (inactive).
With `CC(=O)N1C(Nc2nccs2)CCN1c1ccccc1` (stereo unspecified), the GI50 in the experiment on EKVX, with LOX IMVI, with RXF 393, in the experiment with PC-3, with SNB-19 and in the experiment on NCI/ADR-RES was > 10 µM (inactive) throughout. Further, the GI50 in the experiment on NCI-H226, in the experiment on Hs-578T, in the experiment on HCC 2998, in the experiment on NCI-H460, in the experiment with MDA-N and in the experiment on CAKI-1 was > 10 µM (inactive) in each case. The GI50 in the experiment with MDA-MB-231, in the experiment on OVCAR-4, in the experiment with DU-145, with MCF7, in the experiment on SNB-75 and with SF-268 was > 10 µM (inactive) each time.
Turning to `N#CCC1(c2ccc(Cl)cc2)NC(=O)c2ccccc21` (stereo unspecified), the GI50 in the experiment with EKVX, in the experiment with KM12, in the experiment on LOX IMVI, in the experiment on RXF 393, with A498 and in the experiment on PC-3 was > 100 µM (inactive) each time. The GI50 with SNB-19, in the experiment on NCI/ADR-RES, with NCI-H226, in the experiment with Hs-578T, in the experiment with NCI-H460 and in the experiment with MDA-N was > 100 µM (inactive) throughout. Also, the GI50 with CAKI-1 is > 100 µM (inactive); with MDA-MB-231, > 100 µM (inactive); with OVCAR-4 it was > 100 µM (inactive); with DU-145, > 100 µM (inactive); in the experiment with MCF7, > 100 µM (inactive); in the experiment on SNB-75, 60.8 µM (inactive). Further, in the experiment with SF-268, the GI50 is > 100 µM (inactive).
In the case of `COc1cccc2c(=O)oc(-c3ccc(C(C)(C)C)cc3)nc12`, the GI50 in the experiment with EKVX is 63.7 µM (inactive); in the experiment on KM12, 32.4 µM (inactive); in the experiment with LOX IMVI, 22.5 µM (inactive); in the experiment with RXF 393, 49.3 µM (inactive); with A498, > 100 µM (inactive); in the experiment on PC-3 it was > 100 µM (inactive). Moreover, the GI50 with SNB-19 is > 100 µM (inactive); with NCI/ADR-RES it was 54.8 µM (inactive); with Hs-578T, 79.3 µM (inactive); with HCC 2998 it was 0.447 µM (active); with NCI-H460, 65.8 µM (inactive); with MDA-N it was 76.7 µM (inactive). The GI50 is 35.8 µM (inactive) in the experiment on CAKI-1; 58.1 µM (inactive) with MDA-MB-231; 53.6 µM (inactive) with OVCAR-4; > 100 µM (inactive) in the experiment on DU-145; 57 µM (inactive) with MCF7; 23.9 µM (inactive) in the experiment on SNB-75. For the same molecule, the GI50 in the experiment on SF-268 is 84.9 µM (inactive).
Regarding `Clc1ncnc(Cl)c1Cl`, the GI50 in the experiment on KM12, with LOX IMVI, in the experiment with RXF 393, in the experiment with PC-3, with SNB-19 and in the experiment on NCI/ADR-RES was > 100 µM (inactive) throughout. In addition, the GI50 with NCI-H226, in the experiment on Hs-578T, in the experiment on HCC 2998, in the experiment with NCI-H460, in the experiment on MDA-N and in the experiment on CAKI-1 was > 100 µM (inactive) each time. Further, the GI50 with MDA-MB-231, in the experiment with OVCAR-4, in the experiment with DU-145, in the experiment with MCF7, with SNB-75 and with SF-268 was > 100 µM (inactive) throughout.
